viability, T/C and IC50 data for eight compounds are collected here from PubChem BioAssay AID1963860 (Molecular Pharmacology Branch, DTP, NCI, 2024).

The assay has as its system CN0375-F725-PDC KRAS spheroid viability. In words: Anticancer human tumor CN0375-F725-PDC patient-derived colon carcinoma cell line growth inhibition [KRAS2]. The note with it: spheroids with HUVEC and MSC; for viability, T/C: stronger effect = lower value. The source says: Multicellular complex tumor spheroid response to RAS pathway inhibitors in combination with a targeted agents in patient-derived cell lines with oncogenic KRAS variants from multiple cancer types
A high-throughput screen of multi-cell type tumor spheroids was designed to identify active combinations of targeted small molecules and KRAS pathway inhibitors. Complex spheroids include a stromal component modeled by human endothelial cells (HUVEC) and fibroblasts modeled by human mesenchymal stem cells (MSCs). The concentration ranges selected for each drug and investigational agent were based upon clinically achievable concentrations if the clinical Cmax of the agent was known.
Compounds. The drugs and investigational agents: BI-3406 (NSC825286), BAY-293 (NSC824723), batoprotafib (TNO155; NSC825523), sotorasib (AMG 510; NSC818433), MRTX1257 (NSC819558), elimusertib (BAY 1895344; NSC800525), molibresib (GSK525762; NSC774829), temuterkib (LY3214996; NSC803410), venetoclax (NSC766270), alisertib (NSC759677), olaparib (NSC753686), talazoparib (NSC767125), erdafitinib (NSC781556), ipatasertib (NSC767898), cabozantinib (NSC761068), nintedanib (NSC756659), abemaciclib (NSC768073), docetaxel (NSC628503), trametinib (NSC758246), and sapanisertib (NSC764658) were obtained from the National Cancer Institute (NCI) Developmental Therapeutics Program Chemical Repository. The FDA-approved anticancer drug set is available from the Developmental Therapeutics Program. […] The stock solutions were prepared in dimethyl sulfoxide (DMSO, Sigma-Aldrich, St. Louis, MO, cat. D2650) at 800-fold the tested concentration and stored at -70 degrees C prior to their use. All drugs and investigational agents were tested over a range starting from a high concentration at or near the clinical Cmax and decreasing in half-log increments. If the clinical Cmax for an agent had not been determined, the highest concentration tested was 10 microM.
Cell Culture. All cells were maintained in an incubator at 37 degrees C and 5% CO2 with 95% humidity. The PDC lines were cultured according to standard operating procedures established by the NCI PDMR (https://pdmr.cancer.gov/sops/default.htm). Briefly, all PDCs were thawed and cultured in Matrigel-coated flasks prepared with a working solution of 1X Ham's F-12 nutrient mix, without supplementation (Invitrogen, Waltham, MA, cat. 11765054), 100 U/mL penicillin-streptomycin (Invitrogen, cat. 15140122), and 2.5% Matrigel (Corning Inc., Corning, NY, cat. 354248) for the first three passages. All PDCs were cultured in complete DMEM/F-12 media containing advanced DMEM/F-12 (Invitrogen, cat. 12634028), 4.9% defined fetal bovine serum, heat inactivated (HyClone Laboratories Inc., Logan, UT, cat. SH30070.03HI), 389 ng/mL hydrocortisone (Sigma-Aldrich, cat. H4001), 9.7 ng/mL human EGF recombinant protein (Invitrogen, cat. PHG0313), 23.4 microg/mL adenine (Sigma-Aldrich, cat. A2786), 97.3 U/mL penicillin-streptomycin (Invitrogen, cat. 15140122), 1.9 mM L-glutamine (Invitrogen, cat. 25030081), and 9.7 microM Y-27632 dihydrochloride (Tocris Bioscience, Bristol, United Kingdom, cat. 1254). The PDCs were cultured in complete DMEM/F12 media without 9.7 microM Y-27632 dihydrochloride for at least two passages prior to the screen. The established cell line HOP-62 was cultured in RPMI 1640 medium, HEPES (Invitrogen, cat. 22400105) with 10% defined fetal bovine serum (HyClone Laboratories Inc., cat. SH30070.03) and 2 mM L-glutamine (Invitrogen, cat. 25030081). The pooled donor HUVEC were cultured in endothelial cell growth medium 2 (PromoCell, Heidelberg, Germany, cat. C-22011) and the hMSC were cultured in mesenchymal stem cell growth medium 2 (PromoCell, cat. C-28009). For all experiments, HUVEC and hMSC were used at passages </=5, while the malignant cell lines were used at passages </=15. […]

Where [1] appears, read: compound alone, run of 08/26/2021.
Setting [2] is: compound alone, run of 09/02/2021.
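Also: spheroids exposed to agents for 7 days.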

For the compound `C=CC(=O)N1CCN(c2nc(=O)n(-c3c(C)ccnc3C(C)C)c3nc(-c4c(O)cccc4F)c(F)cc23)C(C)C1` (stereo not drawn), the viability, T/C by setting is: (compound 0.1 µM) 103% [middle of 17 runs]; (compound 0.316 µM) 103% [middle of 17 runs]; (compound 1 µM) 103% [middle of 17 runs]; (compound 3.16 µM) 104% [middle of 17 runs]; (compound 10 µM) 100% [middle of 17 runs]. The IC50 was over 10 µM (compound alone, run of 08/19/2021); over 10 µM under setting [1]; over 10 µM under setting [2].
Turning to `CC(C)NCC(C(=O)N1CCN(c2ncnc3c2C(C)CC3O)CC1)c1ccc(Cl)cc1` (stereo not drawn), the viability, T/C was 103% [middle of 5 runs] (compound 0.0316 µM); 102% [middle of 5 runs] (compound 0.1 µM); 96.5% [middle of 5 runs] (compound 0.316 µM); 93.9% [middle of 5 runs] (compound 1 µM); 91.8% [middle of 5 runs] (compound 3.16 µM); 76.8% [middle of 5 runs] (compound 10 µM). Besides, the half-inhibitory concentration (IC50) (curve of compound) was over 10 µM.
`CNCc1ccccc1-c1csc(C(C)Nc2nc(C)nc3cc(OC)c(OC)cc23)c1` (stereo not drawn): the viability, T/C reads like this: (compound 0.1 µM) 98.1% [middle of 17 runs]; (compound 0.316 µM) 92.8% [middle of 17 runs]; (compound 10 µM) 0.33% [middle of 15 runs]. Besides, the IC50 by setting is: under setting [1], 988 nM [middle of 5 runs]; under setting [2], 1.33 µM [middle of 6 runs].
For the compound `COC(=O)c1ccc2c(C(=Nc3ccc(N(C)C(=O)CN4CCN(C)CC4)cc3)c3ccccc3)c(O)[nH]c2c1`, the viability, T/C by setting is: (compound 0.0316 µM) 103% [middle of 5 runs]; (compound 0.1 µM) 96.6% [middle of 5 runs]; (compound 0.316 µM) 93.9% [middle of 5 runs]; (compound 1 µM) 91.9% [middle of 5 runs]; (compound 10 µM) 0.42% [middle of 5 runs]. Where the note is “curve of compound”, the half-inhibitory concentration (IC50) was 3.14 µM [middle of 5 runs].
For the compound `COc1cc(OC)cc(N(CCNC(C)C)c2ccc3ncc(-c4cnn(C)c4)nc3c2)c1`, the viability, T/C (compound 0.0316 µM) was 94.3% [middle of 5 runs]; the viability, T/C (compound 0.1 µM) was 91.7% [middle of 5 runs]; the viability, T/C (compound 0.316 µM) is 92.1% [middle of 5 runs]; the viability, T/C (compound 1 µM) is 103% [middle of 5 runs]; the viability, T/C (compound 3.16 µM) was 82.9% [middle of 5 runs]; the viability, T/C (compound 10 µM) is 2.52% [middle of 5 runs]. Moreover, the concentration for half-maximal inhibition (IC50) (curve of compound) is 5.06 µM [middle of 4 runs].
Turning to `COc1cc2nc(C)nc(NC(C)c3cc(N)cc(C(F)(F)F)c3)c2cc1OC1CCOC1` (stereo not drawn), the viability, T/C by setting is: (compound 0.1 µM) 96.2% [middle of 17 runs]; (compound 0.316 µM) 92.3% [middle of 17 runs]; (compound 1 µM) 90.5% [middle of 17 runs]; (compound 3.16 µM) 83.4% [middle of 17 runs]. The IC50 under setting [1] was 5.77 µM [middle of 4 runs] and the IC50 under setting [2] is 5.43 µM [middle of 6 runs].
For the compound `COc1cc2nccc(Oc3ccc(NC(=O)C4(C(=O)Nc5ccc(F)cc5)CC4)cc3)c2cc1OC`, the viability, T/C (compound 0.0316 µM) is 102% [middle of 5 runs]; the viability, T/C (compound 0.1 µM) is 97.5% [middle of 5 runs]; the viability, T/C (compound 0.316 µM) was 92.5% [middle of 5 runs]; the viability, T/C (compound 1 µM) was 88.5% [middle of 5 runs]; the viability, T/C (compound 3.16 µM) was 57.1% [middle of 5 runs]; the viability, T/C (compound 10 µM) is 67.7% [middle of 5 runs]. In addition, the 50% inhibitory concentration (IC50) (curve of compound) was over 10 µM.
On to `O=C(c1cc(Cc2n[nH]c(=O)c3ccccc23)ccc1F)N1CCN(C(=O)C2CC2)CC1`, for which the viability, T/C (compound 0.0316 µM) is 107% [middle of 5 runs]; the viability, T/C (compound 0.1 µM) is 106% [middle of 5 runs]; the viability, T/C (compound 0.316 µM) was 102% [middle of 5 runs]; the viability, T/C (compound 1 µM) is 107% [middle of 5 runs]; the viability, T/C (compound 3.16 µM) is 105% [middle of 5 runs]; the viability, T/C (compound 10 µM) was 96.7% [middle of 5 runs]. For the same compound, the IC50 (curve of compound) was over 10 µM.

For orientation: viability, T/C means the ratio of treated to control. For orientation: IC50 means the concentration that gives 50% inhibition.
